Where two headings read alike, the source gives them in different places.
Columns and labels:
hα2A = biological target: T1, hα2A (Homo sapiens, UniProt P08913); experiment: Radioligand binding, hα2A receptor ([3H]rauwolscine)
T1 construct: expressed in transfected cells; host or cells: Chinese hamster lung cells (membrane preparation)
T1 sequence (P08913 1-465): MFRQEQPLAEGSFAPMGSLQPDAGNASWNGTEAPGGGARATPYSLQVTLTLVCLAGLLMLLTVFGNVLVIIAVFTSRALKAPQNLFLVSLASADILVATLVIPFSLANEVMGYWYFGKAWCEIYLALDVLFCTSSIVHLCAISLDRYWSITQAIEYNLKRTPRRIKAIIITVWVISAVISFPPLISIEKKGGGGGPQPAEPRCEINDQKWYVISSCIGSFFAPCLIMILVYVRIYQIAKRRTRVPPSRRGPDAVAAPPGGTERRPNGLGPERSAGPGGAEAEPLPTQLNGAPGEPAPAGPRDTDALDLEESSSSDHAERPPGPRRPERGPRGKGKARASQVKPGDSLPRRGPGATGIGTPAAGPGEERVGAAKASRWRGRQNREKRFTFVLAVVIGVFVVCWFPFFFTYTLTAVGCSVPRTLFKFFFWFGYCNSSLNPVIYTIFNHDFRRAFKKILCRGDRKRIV
Protocol: (§1) Binding affinities at human monoamine receptors and transporters were assessed as previously reported. A detailed description of the methodology is provided in the Supplementary information.
(§2) Data analysis was performed with Prism software (version 10.1.2, GraphPad Software, Boston, MA, USA). The IC50 values from the radioligand binding assays were determined by nonlinear regression, using three independent concentration-response curves fitted to a one-site model. The Cheng-Prusoff equation was used to calculate Kᵢ values for the competing ligands. EC50 values were determined by applying nonlinear regression to concentration-response curves. Bias factors (β) were calculated based on the relative intrinsic activity approach. More detailed information can be found in the Supplementary information. Mean values for total number of HTR, change in body temperature from pre to post session (Δ°C), and total distance traveled (cm) for each drug dose were compared (p < 0.05) via Welch’s ANOVA with Dunnett’s T3 post test, comparing all doses to respective vehicle controls (0 mg/kg). Welch’s ANOVA with Dunnett’s T3 post test was also used to compare drug concentrations, but the data were compared to DOM in this case. Dose–response relationships for HTR and locomotor activities were plotted using bell-shaped curve fits, while temperature change data were plotted using four-parameter non-linear regression curve fits. The ascending phase of the HTR curve for each drug was used to determine ED50 potency values from four parameter non-linear regression fits. For combined DOM and DOAM administration, the plasma, brain tissue, and brain dialysate drug concentrations were compared using paired t-tests (p < 0.05). Ratios were compared using Holm-Sidak’s post hoc test following a repeated-measures one-way ANOVA (F (1.709, 6.835) = 70.80; p < 0.0001).
(§3) 3.1 Assessment of receptor and transporter binding affinities
(§4) Membrane preparations were prepared from cells transfected with the respective target. The membrane preparations were then incubated with selective radioligands at concentrations equal to the corresponding Kd and displacement of the ligand by the drugs was measured. The difference between total binding and nonspecific binding (determined in the presence of selective competitors) was defined as specific binding of the radioligand to the target receptor. The following transfected cell lines were used for the binding assays: HEK 293 cells (h5-HT1A, h5-HT2A, h5-HT2B, h5-HT2C, and hD2 receptors, hDAT, hNET, and hSERT), Chinese hamster ovary cells (hα 1A receptor), and Chinese hamster lung cells (hα 2A receptor).
(§5) 3.1.1 Membrane preparations for receptor and transporter binding
For producing membrane preparations, transfected cells were harvested with trypsin/EDTA, washed with ice-cold phosphate buffered saline, and then pelleted by centrifugation (210 × g for 5 min at 4 °C). The pellets were frozen and stored at -80 °C until use. Frozen pellets were resuspended in 20 m L (receptor binding) or 400 m L (transporter binding) buffer (20 mM HEPES -NaOH, 10 mM EDTA, pH 7.4), and homogenized at 1,100 × g for 20 s (receptor binding) or 560 × g for 15 s (transporter binding); the homogenates were then centrifuged at 48,000 × g for 30 min at 4 °C. For receptor binding assays, the supernatants were discarded and the pellets were resuspended in 20 mL buffer (20 mM HEPES-NaOH, 0.1 mM EDTA, pH 7.4) and homogenized at 1 ,100 × g for 20 s. Centrifugation and discarding of the supernatant were repeated once, and the final pellet was then resuspended in buffer and homogenized.
3.1.2 Serotonin 5-HT1A and 5-HT2A receptor binding
Competitive binding at the h5-HT1A and h5-HT2A receptor was determined using 0.90 nM [ 3H]8-hydroxy-2-(di-n-propylamine)tetralin ([ 3H]8-OH-DPAT; h5-HT1A receptor agonist) and 0.40 nM [3H]ketanserin (h5-HT2 receptor antagonist) as radioligands. The density and affinity of [ 3H]8-OH-DPAT […]

Human = test system: Human; set-up: method as in ref 48 (PiHKAL: A Chemical Love Story); conditions: ref 48 (PiHKAL: A Chemical Love Story); cited from earlier work
h5-HT1A = biological target: T2, h5-HT1A (Homo sapiens, UniProt P08908); experiment: Radioligand binding, h5-HT1A receptor ([3H]8-OH-DPAT)
T2 construct: expressed in transfected cells; host or cells: HEK 293 cells (membrane preparation)
T2 sequence (P08908 1-422): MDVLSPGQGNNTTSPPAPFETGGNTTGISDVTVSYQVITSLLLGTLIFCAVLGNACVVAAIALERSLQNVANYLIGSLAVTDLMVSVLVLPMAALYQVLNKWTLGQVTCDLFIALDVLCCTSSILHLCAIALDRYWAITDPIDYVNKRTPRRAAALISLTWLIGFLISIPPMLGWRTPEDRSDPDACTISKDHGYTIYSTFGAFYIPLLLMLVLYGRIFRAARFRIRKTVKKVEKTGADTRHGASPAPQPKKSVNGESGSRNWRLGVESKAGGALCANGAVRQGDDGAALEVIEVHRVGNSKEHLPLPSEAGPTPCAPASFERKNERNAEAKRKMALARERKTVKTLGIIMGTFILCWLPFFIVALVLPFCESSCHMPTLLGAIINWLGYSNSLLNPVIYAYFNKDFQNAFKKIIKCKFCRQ

hD2 = biological target: T3, hD2 (Homo sapiens, UniProt P14416); experiment: Radioligand binding, hD2 receptor ([3H]spiperone)
T3 construct: expressed in transfected cells; host or cells: HEK 293 cells (membrane preparation)
T3 sequence (P14416 whole entry): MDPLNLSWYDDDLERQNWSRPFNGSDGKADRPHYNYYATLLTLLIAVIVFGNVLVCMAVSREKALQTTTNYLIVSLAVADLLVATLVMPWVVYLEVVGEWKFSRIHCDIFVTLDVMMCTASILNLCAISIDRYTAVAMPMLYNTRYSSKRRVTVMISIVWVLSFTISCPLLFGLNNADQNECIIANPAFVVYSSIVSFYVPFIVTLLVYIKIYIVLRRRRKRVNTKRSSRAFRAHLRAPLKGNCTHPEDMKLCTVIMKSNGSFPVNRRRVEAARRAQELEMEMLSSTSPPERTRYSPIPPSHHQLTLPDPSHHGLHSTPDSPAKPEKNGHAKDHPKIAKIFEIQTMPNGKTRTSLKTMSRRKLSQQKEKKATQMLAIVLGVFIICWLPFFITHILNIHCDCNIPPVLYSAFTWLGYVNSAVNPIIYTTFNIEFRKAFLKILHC
Protocol: as §1, §2, §3, §4, §5
For producing membrane preparations, transfected cells were harvested with trypsin/EDTA, washed with ice-cold phosphate buffered saline, and then pelleted by centrifugation (210 × g for 5 min at 4 °C). The pellets were frozen and stored at -80 °C until use. Frozen pellets were resuspended in 20 m L (receptor binding) or 400 m L (transporter binding) buffer (20 mM HEPES -NaOH, 10 mM EDTA, pH 7.4), and homogenized at 1,100 × g for 20 s (receptor binding) or 560 × g for 15 s (transporter binding); the homogenates were then centrifuged at 48,000 × g for 30 min at 4 °C. […]
Competitive binding at the h5-HT1A and h5-HT2A receptor was determined using 0.90 nM [ 3H]8-hydroxy-2-(di-n-propylamine)tetralin ([ 3H]8-OH-DPAT; h5-HT1A receptor agonist) and 0.40 nM [3H]ketanserin (h5-HT2 receptor antagonist) as radioligands. […]

| Structure (SMILES) | Ki (hα2A) | Human dose (Human) | Ki (h5-HT1A) | Ki (hD2) | Ki (h5-HT1A; read-out: Ki h5-HT1A (95% CI), receptor binding, HEK 293 membranes) |
| --- | --- | --- | --- | --- | --- |
| CCCc1cc(OC)c(CC(C)N)cc1OC.Cl (centres unmarked) [DOPR, 4-propyl-2,5-dimethoxyamphetamine hydrochloride] | 0.513 µM | 2.5 to 5.0 mg | 3.95 µM |  |  |
| CCCCCc1cc(OC)c(CC(C)N)cc1OC (centres unmarked) [DOAM, 4-amyl-2,5-dimethoxyamphetamine] | 2.31 µM | > 10 mg | 8.42 µM | > 13 µM |  |
| COc1ccc(OC)c(CC(C)N)c1.Cl (centres unmarked) [2,5-DMA, 2,5-Dimethoxyamphetamine hydrochloride] | 4.39 µM | 80 to 160 mg | 6.02 µM | > 13 µM |  |
| COc1cc(CC(C)N)c(OC)cc1C (centres unmarked) [DOM, 4-methyl-2,5-dimethoxyamphetamine] | > 4.97 µM | 3.0 to 10.0 mg |  | > 7.5 µM | 7.24 µM |
| CCCCc1cc(OC)c(CC(C)N)cc1OC (centres unmarked) [DOBU, 4-butyl-2,5-dimethoxyamphetamine] | 1.71 µM | Uncertain | 13.5 µM | > 13 µM |  |
| CCc1cc(OC)c(CC(C)N)cc1OC (centres unmarked) [DOET, 4-ethyl-2,5-dimethoxyamphetamine] | > 4.97 µM | 2.0 to 6.0 mg | 5.76 µM | > 13 µM |  |
